Measured values from article PMC4444023 (PLoS ONE, 2015).
“Also recorded” adds a separate entry of the source.

Experiments:
B. cereus nSMase = B. cereus nSMase (Bacillus cereus, UniProt P11889); experiment: Inhibition of bacterial nSMase (not shown); assay type: biochemical
[1] = test system: rat primary hippocampal neurons; experiment: Dendrite length (MAP2 imaging); assay type: cell-based; conditions: for dendrite length, Mean: in µm (unit assumed)
Method: Quantification of neuronal morphology was done in primary hippocampal neurons plated in PEI-coated ultra-thin and optically clear flat bottom 96-well plates (Corning). […] Neurons were then fixed with 4% paraformaldehyde, and permeabilized with 0.1% Triton X-100 in phosphate-buffered saline (PBS-T) for 20 min at room temperature. Blocking was done for 1 h with 5% normal goat serum solution, then incubation with anti-MAP2 antibody (1:500, Sigma) was done, followed by three washes with PBS-T and 2 h incubation with Alexa 595 secondary antibody (1:500, Life Technologies). Dendrites were imaged with a 20X objective using a Zeiss Axio Observer Z1 microscope equipped with an Orca ER CCD camera (Hamamatsu Inc). A 6x6 image was obtained from each culture well, and a montage was created using Neurolucida imaging software (mbf Biosecience). The effects of the experimental treatments on dendrite length were determined and the results presented are the average of 5–6 individual experiments. Statistical significance was determined by one-way ANOVA analysis.

SIRT2 = conditions: NAD-dependent deacetylase activity; cited from earlier work
macrophages = conditions: cited from earlier work
[2] = test system: rat primary cortical neurons; experiment: Lipid extraction and ceramide measurements (LC-MS/MS); assay type: cell-based; conditions: rat primary neurons, TNF-α
Method: Primary cortical neurons were prepared from embryonic day 18 Sprague-Dawley rats following previously described methods. […] A crude lipid extract from cortical neurons was obtained using a modified Bligh and Dyer procedure. Ceramide C12:0 (Avanti Polar Lipids) was included as an internal standard. The organic layers were dried in a nitrogen evaporator (Organomation Associates Inc.) and stored at -80°C. Dried organic layers were resuspended in methanol just prior to analysis. The detection and quantitation of individual ceramide species was performed on a high-performance liquid chromatography (HPLC) coupled electrospray ionization triple quadrupole mass spectrometer (API3000, AB Sciex Inc.) using settings similar to those described in previous studies. Samples were handled by a CTC PAL autosampler (LEAP Technologies Inc.) and injected into an HPLC (PerkinElmer) equipped with a reverse phase C18 column (Phenomex). […] The eluted sample was injected into the electrospray ionization source and detection of each ceramide species was conducted by multiple reaction monitoring. Spectral analysis was conducted using MultiQuant (AB Sciex Inc.), individually validated and normalized to the internal standard. Final data for each ceramide species in counts per second was expressed as the ratio of analyte/internal standard.

aSMase = target: aSMase; parameters: method as in earlier work; conditions: ref personal communication with Drs. Marc Ferrer and Wei Zheng, NCATS; cited from earlier work
human nSMase2 = target: T1, human nSMase2 (Homo sapiens, UniProt Q9NY59); experiment: Time dependence study of cambinol inhibitory activity; assay type: biochemical; parameters: Full length human nSMase2 cDNA with a C-terminal Flag tag; host or cells: HEK293, stably transfected; crude cell lysate used as enzyme; conditions: pre-incubation up to 2 h
T1 sequence (Q9NY59 1-655): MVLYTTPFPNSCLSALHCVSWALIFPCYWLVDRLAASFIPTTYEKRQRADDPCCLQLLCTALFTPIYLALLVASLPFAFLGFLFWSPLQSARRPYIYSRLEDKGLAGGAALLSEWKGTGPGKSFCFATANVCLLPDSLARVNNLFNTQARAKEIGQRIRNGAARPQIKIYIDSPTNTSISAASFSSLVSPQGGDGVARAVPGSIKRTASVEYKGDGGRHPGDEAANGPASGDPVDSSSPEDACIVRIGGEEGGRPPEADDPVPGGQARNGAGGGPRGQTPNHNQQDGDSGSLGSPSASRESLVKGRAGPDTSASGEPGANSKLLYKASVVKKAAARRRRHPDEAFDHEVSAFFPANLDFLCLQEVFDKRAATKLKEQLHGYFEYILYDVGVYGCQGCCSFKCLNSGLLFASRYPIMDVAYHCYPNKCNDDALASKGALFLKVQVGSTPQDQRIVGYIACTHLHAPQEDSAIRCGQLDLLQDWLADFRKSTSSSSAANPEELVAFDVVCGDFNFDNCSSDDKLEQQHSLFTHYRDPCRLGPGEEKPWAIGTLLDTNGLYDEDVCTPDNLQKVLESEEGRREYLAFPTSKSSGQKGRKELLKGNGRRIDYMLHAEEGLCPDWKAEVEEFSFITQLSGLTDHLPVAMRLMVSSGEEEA
Method: ^bCambinol IC50 values were determined from 8-points dose response curves run in duplicate.

SIRT1 = conditions: NAD-dependent deacetylase activity; cited from earlier work
[3] = test system: Burkitt lymphoma xenografts; parameters: method as in PMID 16618762; conditions: mice, cited from earlier work

Chain of B. cereus nSMase (P11889 28-333): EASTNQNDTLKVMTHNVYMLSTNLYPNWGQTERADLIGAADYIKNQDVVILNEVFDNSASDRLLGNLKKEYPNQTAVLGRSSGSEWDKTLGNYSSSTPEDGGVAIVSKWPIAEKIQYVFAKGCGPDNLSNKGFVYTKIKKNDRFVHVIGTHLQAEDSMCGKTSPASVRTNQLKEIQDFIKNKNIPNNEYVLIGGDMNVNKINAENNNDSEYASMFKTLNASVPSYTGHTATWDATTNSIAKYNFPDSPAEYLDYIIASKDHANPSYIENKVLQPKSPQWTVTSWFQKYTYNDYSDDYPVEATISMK

For `O=c1[nH]c(=S)[nH]c(-c2ccccc2)c1Cc1c(O)ccc2ccccc12` [Cambinol, cambinol], the IC50 (B. cereus nSMase) was 5 µM, the “dendrite length, Mean” value ([1]; 100 ng/ml TNFα 18 h, 0.1 µM Cambinol) was 9111.111 and the “dendrite length, Mean” value ([1]; 100 ng/ml TNFα 18 h, 0.3 µM Cambinol) was 11450. The “dendrite length, Mean” value ([1]; 100 ng/ml TNFα 18 h, 1 µM Cambinol) was 13799, the “dendrite length, Mean” value ([1]; 100 ng/ml TNFα 18 h, 3 µM Cambinol) was 14262.5 and the “dendrite length, Mean” value ([1]; 100 ng/ml TNFα 18 h, 10 µM Cambinol) was 18867. The “dendrite length, Mean” value ([1]; 100 ng/ml TNFα 18 h, 30 µM Cambinol) was 16000, the “dendrite length, Mean” value ([1]; No TNFα, 30 µM Cambinol) was 15151.25 and the “effect on TNFα-induced dendrite damage” value ([1]; decrease in dendritic length) was “prevented; also recorded: protected”. The IC50 (SIRT2) was 59 µM, the “TNF-α and IL-6 release” value (macrophages) was “effectively inhibited” and the “effect on cytokine-induced increase of ceramide (words)” value [2] was “decreased”. For the same compound, the “effect on cytokine-induced increase of ceramide (words)” value ([2]; listed as cambinol) was “dose dependently block; also recorded: blocked”, the IC50 (aSMase) was greater than 10 µM and the “time dependence of inhibition” value (human nSMase2) was “did not change; also recorded: independent of pre-incubation time”. For the same compound, the IC50 (SIRT1) was 56 µM, the “tolerability” value ([3]; doses as high as 100 mg/kg intravenously) was “well tolerated” and the “anti-cancer efficacy” value [3] was “effective”.
